US5502035A, “N-terminus modified analogs of LHRH” (Tap Holdings Inc., priority 1994, dated 1996)
Non-standard residues stand in square brackets, D forms with d. Residues, ends and D or L forms follow the SMILES beside them. *: point of attachment. Shikimoyl = O=C(C1=C[C@@H](O)[C@@H](O)[C@H](O)C1)*; dPhe(4-Cl) = N[C@H](Cc1ccc(Cl)cc1)C(=O)O; d2Nal = N[C@H](Cc1ccc2ccccc2c1)C(=O)O; Lys(iPr) = CC(C)NCCCC[C@H](N)C(=O)O; NMeY = CN[C@@H](Cc1ccc(O)cc1)C(=O)O; d3Pal = N[C@H](Cc1cccnc1)C(=O)O; Nicotinoyl = O=C(c1cccnc1)*; Picolinoyl = O=C(c1ccccn1)*; 2Furoyl = O=C(c1ccco1)*; X6 = O=C(c1ccoc1)*

Biological target: T1, LHRH (Rattus norvegicus, UniProt P30969)
T1 construct: endogenous in cells; host or cells: rat pituitary cells (own knowledge of the cited Haviv 1989 method)
T1 sequence (P30969 1-327): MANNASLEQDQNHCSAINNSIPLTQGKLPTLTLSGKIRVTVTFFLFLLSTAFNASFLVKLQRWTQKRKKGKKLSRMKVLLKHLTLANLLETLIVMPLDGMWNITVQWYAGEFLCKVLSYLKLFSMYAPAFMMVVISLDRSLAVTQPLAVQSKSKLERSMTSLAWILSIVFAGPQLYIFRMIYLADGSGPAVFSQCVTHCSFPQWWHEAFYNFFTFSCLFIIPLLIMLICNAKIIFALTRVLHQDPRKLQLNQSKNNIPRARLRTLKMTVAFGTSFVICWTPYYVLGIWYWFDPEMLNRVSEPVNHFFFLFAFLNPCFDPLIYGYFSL
Test: in vitro test for LHRH antagonist potency (pA2)
Format: cell-based
Conditions: negative logarithm of the antagonist concentration required to shift the response curve produced by the agonist leuprolide to two-fold higher concentration
Procedure: Representative compounds of the present invention were evaluated in an in vitro test for LHRH antagonist potency (pA2). The test employed the method detailed in F. Haviv, et al. J. Med. Chem., 32:2340-2344 (1989). The values of pA2 are the negative logarithms of the concentration of the particular antagonist test compound required to shift the response curve produced by the agonist leuprolide to two-fold higher concentration. (Leuprolide is the LHRH agonist having the structure 5-oxo-Pro^1 -His^2 -Trp^3 -Ser^4 -Tyr^5 -D-Leu^6 -Leu^7 -Arg^8 -Pro^9 -NHEt and is disclosed and claimed in U.S. Pat. No. 4,005,063.) Typically pA2 values of 9.5 or greater are indicative of good LHRH antagonist potency, with values of 10.0 or greater being preferred.

Row | Structure (SMILES) | Kb
1 | CC(C)C[C@H](NC(=O)[C@@H](CCCCNC(=O)c1cccnc1)NC(=O)[C@H](Cc1ccc(O)cc1)N(C)C(=O)[C@H](CO)NC(=O)[C@@H](Cc1cccnc1)NC(=O)[C@@H](Cc1ccc(Cl)cc1)NC(=O)[C@@H](Cc1ccc2ccccc2c1)NC(=O)CNC(=O)C1CCCO1)C(=O)N[C@@H](CCCCNC(C)C)C(=O)N1CCC[C@H]1C(=O)N[C@H](C)C(N)=O (mixture of isomers) [Example 3, N-(R,S)-Tetrahydrofur-2-oyl-Gly-D2Nal-D4ClPhe-D3Pal-Ser-NMeTyr-DLys(Nicotinyl) -Leu-Lys(N-epsilon-Isopropyl)-Pro-DAlaNH2] | 0.0158 nM
2 | CC(C)C[C@H](NC(=O)[C@@H](CCCCNC(=O)NNC(=O)c1cccnc1)NC(=O)[C@H](Cc1ccc(O)cc1)N(C)C(=O)[C@H](CO)NC(=O)[C@@H](Cc1cccnc1)NC(=O)[C@@H](Cc1ccc(Cl)cc1)NC(=O)[C@@H](Cc1ccc2ccccc2c1)NC(=O)CNC(=O)C1CCCO1)C(=O)N[C@@H](CCCCNC(C)C)C(=O)N1CCC[C@H]1C(=O)N[C@H](C)C(N)=O (mixture of isomers) [Example 11, N-(R,S)Tetrahydrofur-2-oyl-Gly-D2Nal-D4ClPhe-D3Pal-Ser-NMeTyr-DLys(Azagly-Nicotinyl) -Leu-Lys(N-epsilon-Isopropyl)-Pro-DAlaNH2] | 0.038 nM
3 | CC(C)C[C@H](NC(=O)[C@@H](CCCCNC(=O)CNC(=O)c1cccnc1)NC(=O)[C@H](Cc1ccc(O)cc1)N(C)C(=O)[C@H](CO)NC(=O)[C@@H](Cc1cccnc1)NC(=O)[C@@H](Cc1ccc(Cl)cc1)NC(=O)[C@@H](Cc1ccc2ccccc2c1)NC(=O)CNC(=O)C1CCCO1)C(=O)N[C@@H](CCCNC(=N)N)C(=O)N1CCC[C@H]1C(=O)N[C@H](C)C(N)=O (mixture of isomers) [Example 27b, N-(R,S)-Tetrahydrofur-2oyl-Gly-D2Nal-D4ClPhe-D3Pal-Ser-NMeTyr-DLys(Gly-Nic)-Leu-Arg-Pro-DAlaNH 2] | 0.0135 nM
4 | CC(C)C[C@H](NC(=O)[C@@H](CCCCNC(=O)NNC(=O)c1ccco1)NC(=O)[C@H](Cc1ccc(O)cc1)N(C)C(=O)[C@H](CO)NC(=O)[C@@H](Cc1cccnc1)NC(=O)[C@@H](Cc1ccc(Cl)cc1)NC(=O)[C@@H](Cc1ccc2ccccc2c1)NC(=O)CNC(=O)C1CCCO1)C(=O)N[C@@H](CCCCNC(C)C)C(=O)N1CCC[C@H]1C(=O)N[C@H](C)C(N)=O (mixture of isomers) [Example 30a, N-(R,S)-Tetrahydrofur-2-oyl-Gly-D2Nal-D4ClPhe-D3Pal-Ser-NMeTyr-DLys(Azagly-2Fur)-Leu-Lys(Isp)-Pro-DAlaNH2] | 0.0479 nM
5 | CC(C)C[C@H](NC(=O)[C@@H](CCCCNC(=O)c1cccnc1)NC(=O)[C@H](Cc1ccc(O)cc1)N(C)C(=O)[C@H](CO)NC(=O)[C@@H](Cc1cccnc1)NC(=O)[C@@H](Cc1ccc(Cl)cc1)NC(=O)[C@@H](Cc1ccc2ccccc2c1)NC(=O)CNC(=O)C1CCCO1)C(=O)N[C@@H](CCCCNC(C)C)C(=O)N1CCC[C@H]1C(=O)N(C)CC(N)=O (mixture of isomers) [Example 38, N-(R,S)-Tetrahydrofur-2-oyl-Gly-D2Nal-D4ClPhe-D3Pal-Ser-NMeTyr-DLys(Nicotinyl)-Leu-Lys(Isp)-Pro-SarNH2] | 0.0309 nM
6 | CC(C)C[C@H](NC(=O)[C@@H](CCCCNC(=O)c1cccnc1)NC(=O)[C@H](Cc1ccc(O)cc1)NC(=O)[C@H](CO)NC(=O)[C@@H](Cc1cccnc1)NC(=O)[C@@H](Cc1ccc(Cl)cc1)NC(=O)[C@@H](Cc1ccc2ccccc2c1)NC(=O)CNC(=O)C1CCCO1)C(=O)N[C@@H](CCCCNC(C)C)C(=O)N1CCC[C@H]1C(=O)N[C@H](C)C(N)=O (mixture of isomers) [Example 91, N (R,S)-2-Tetrahydrofuroyl-Gly-D2Nal-D4ClPhe-D3Pal-Ser-Tyr-DLys(N-epsilon-Nicotinyl) -Leu-Lys(N-epsilon-Isopropyl)-Pro-DAlaNH2] | 0.00219 nM
7 | CC(=O)N[C@H](Cc1ccc(O)cc1)C(=O)N[C@H](Cc1ccc2ccccc2c1)C(=O)N[C@H](Cc1ccc(Cl)cc1)C(=O)N[C@H](Cc1cccnc1)C(=O)N[C@@H](CO)C(=O)N(C)[C@@H](Cc1ccc(O)cc1)C(=O)N[C@H](CCCCNC(=O)c1cccnc1)C(=O)N[C@@H](CC(C)C)C(=O)N[C@@H](CCCCNC(C)C)C(=O)N1CCC[C@H]1C(=O)N[C@H](C)C(N)=O [Example 1, N-Ac-DTyr-D2Nal-D4ClPhe-D3Pal-Ser-NMeTyr-DLys(Nicotinyl)-Leu-Lys(N-epsilon- Isopropyl) -Pro-DAlaNH2] (Ac-[dY][d2Nal][dPhe(4-Cl)][d3Pal]S[NMeY][dK](Nicotinoyl)L[Lys(iPr)]P[dA]-NH2) | 0.0178 nM
8 | CC(C)C[C@H](NC(=O)[C@@H](CCCCNC(=O)c1cccnc1)NC(=O)[C@H](Cc1ccc(O)cc1)N(C)C(=O)[C@H](CO)NC(=O)[C@@H](Cc1cccnc1)NC(=O)[C@@H](Cc1ccc(Cl)cc1)NC(=O)[C@@H](Cc1ccc2ccccc2c1)NC(=O)CNC(=O)C1=C[C@@H](O)[C@@H](O)[C@H](O)C1)C(=O)N[C@@H](CCCCNC(C)C)C(=O)N1CCC[C@H]1C(=O)N[C@H](C)C(N)=O [Example 2a, N-Shikimyl-Gly-D2Nal-D4ClPhe-D3Pal-Ser-NMeTyr-DLys(N-epsilon-Nicotinyl) -Leu-Lys(N-epsilon-Isopropyl)-Pro-DAlaNH2] (Shikimoyl-G[d2Nal][dPhe(4-Cl)][d3Pal]S[NMeY][dK](Nicotinoyl)L[Lys(iPr)]P[dA]-NH2) | 0.0282 nM
9 | CC(C)C[C@H](NC(=O)[C@@H](CCCCNC(=O)c1cccnc1)NC(=O)[C@H](Cc1ccc(O)cc1)N(C)C(=O)[C@H](CO)NC(=O)[C@@H](Cc1cccnc1)NC(=O)[C@@H](Cc1ccc(Cl)cc1)NC(=O)[C@@H](Cc1ccc2ccccc2c1)NC(=O)CNC(=O)c1ccco1)C(=O)N[C@@H](CCCCNC(C)C)C(=O)N1CCC[C@H]1C(=O)N[C@H](C)C(N)=O [Example 2c, N-2-Furoyl-Gly-D2Nal-D4ClPhe-D3Pal-Ser-NMeTyr-DLys(N-epsilon-Nicotinyl) -Leu-Lys(N-epsilon-Isopropyl)-Pro-DAlaNH2] (2Furoyl-G[d2Nal][dPhe(4-Cl)][d3Pal]S[NMeY][dK](Nicotinoyl)L[Lys(iPr)]P[dA]-NH2) | 0.00794 nM
10 | CC(C)C[C@H](NC(=O)[C@@H](CCCCNC(=O)c1cccnc1)NC(=O)[C@H](Cc1ccc(O)cc1)N(C)C(=O)[C@H](CO)NC(=O)[C@@H](Cc1cccnc1)NC(=O)[C@@H](Cc1ccc(Cl)cc1)NC(=O)[C@@H](Cc1ccc2ccccc2c1)NC(=O)CNC(=O)c1ccoc1)C(=O)N[C@@H](CCCCNC(C)C)C(=O)N1CCC[C@H]1C(=O)N[C@H](C)C(N)=O [Example 2d, N-3Furoyl-Gly-D2Nal-D4ClPhe-D3Pal-Ser-NMeTyr-DLys(N-epsilon-Nicotinyl) -Leu-Lys(N-epsilon-Isopropyl)-Pro-DAlaNH2] (X6-G[d2Nal][dPhe(4-Cl)][d3Pal]S[NMeY][dK](Nicotinoyl)L[Lys(iPr)]P[dA]-NH2) | 0.0126 nM
11 | CC(C)C[C@H](NC(=O)[C@@H](CCCCNC(=O)c1cccnc1)NC(=O)[C@H](Cc1ccc(O)cc1)N(C)C(=O)[C@H](CO)NC(=O)[C@@H](Cc1cccnc1)NC(=O)[C@@H](Cc1ccc(Cl)cc1)NC(=O)[C@@H](Cc1ccc2ccccc2c1)NC(=O)CNC(=O)c1ccccn1)C(=O)N[C@@H](CCCCNC(C)C)C(=O)N1CCC[C@H]1C(=O)N[C@H](C)C(N)=O [Example 2e, N-Picolyl-Gly-D2Nal-D4ClPhe-D3Pal-Ser-NMeTyr-DLys(N-epsilon-Nicotinyl) -Leu-Lys(N-epsilon-Isopropyl)-Pro-DAlaNH2] (Picolinoyl-G[d2Nal][dPhe(4-Cl)][d3Pal]S[NMeY][dK](Nicotinoyl)L[Lys(iPr)]P[dA]-NH2; N-terminus assumed) | 0.02 nM
